# According to ChEMBL document CHEMBL1146167, “Structural correlation between lipophilicity and lipopolysaccharide-sequestering activity in spermine-sulfonamide analogs” (Bioorg Med Chem Lett, 2006):
# Assay: Binding affinity to LPS by fluorescence-based displacement assay
row,Compound,ED50 [µM]
1,NCCCNCCCCNCCCNS(=O)(=O)c1ccc(Cl)c(C(F)(F)F)c1,21
2,NCCCNCCCCNCCCNS(=O)(=O)c1ccc(Cl)c(Cl)c1Cl,9
3,CC1(C)C2CCC1(CS(=O)(=O)NCCCNCCCCNCCCN)C(=O)C2 (centres undefined),1680
4,NCCCNCCCCNCCCNS(=O)(=O)c1cc(Cl)c(Cl)cc1Cl,19
5,NCCCNCCCCNCCCNS(=O)(=O)c1ccccc1,2960
6,NCCCNCCCCNCCCNS(=O)(=O)c1ccc(Cl)cc1,158
7,CCCCCCCCCCS(=O)(=O)NCCCNCCCCNCCCN,3
8,NCCCNCCCCNCCCNS(=O)(=O)c1ccc(Cl)cc1Cl,56
9,CCCCCCCCS(=O)(=O)NCCCNCCCCNCCCN,5

# Further lines, results first:
row,ED50 [µM],Compound
1,34,NCCCNCCCCNCCCNS(=O)(=O)c1cccc2ccccc12
2,4,CCCCOc1ccc(CC(C)(C)C)cc1S(=O)(=O)NCCCNCCCCNCCCN
3,884,NCCCNCCCCNCCCNS(=O)(=O)c1ccc(C(F)(F)F)cc1
4,4880,NCCCNCCCCNCCCNS(=O)(=O)c1cccc2cccnc12
5,25,CC(C)(C)c1ccc(S(=O)(=O)NCCCNCCCCNCCCN)cc1
6,2110,NCCCNCCCCNCCCNS(=O)(=O)c1ccc(Br)cc1Br
7,> 10000,CCCCS(=O)(=O)NCCCNCCCCNCCCN
8,2,CCCCCCCCCCCCCCCCS(=O)(=O)NCCCNCCCCNCCCN
9,3,CCCCCCCCCCCCS(=O)(=O)NCCCNCCCCNCCCN
10,6,CCCCCCCCCCCCCCCCCCS(=O)(=O)NCCCNCCCCNCCCN
